In patent US6590083B1, “Ketolide antibacterials” (Ortho-McNeil Pharmaceutical, Inc., priority 1999, dated 2003):
≈ marks a conversion by molar mass, not a printed value.

How the values were obtained:
Assay in all cases: In vitro susceptibility testing, MIC by NCCLS broth microdilution
E. coli OC2605 = assay type: cell-based; conditions: CAMHB, 35° C., 16-20 h
Method: (§1) Minimum inhibitory concentrations (“MICs”) were determined by the NCCLS broth microdilution procedure for susceptibility testing for bacteria that grow aerobically (National Committee for Clinical Laboratory Standards, 1997. Methods for dilution antimicrobial Susceptibility tests for bacteria that grow aerobically, 4th ed. Approved standard. NCCLS Document M7-A4. National Committee for Clinical Laboratory Standards, Villanova, Pa.). stock solutions were prepared on the day of the test and appropriate aliquots were added to cation adjusted Mueller-Hinton broth (CAMHB) or Haemophilus test media. Two-fold serial dilutions were prepared and added to wells in microtiter plates. Final test concentrations ranged from 16 to 0.015 μg/ml. Broth cultures of bacteria inoculated from growth on overnight plates for all test bacteria except Streptococcus pneumoniae and Haemophilus influenzae were incubated at 35° C. and then adjusted to the Kirby Bauer standard and diluted in CAMHB to achieve a final inoculum concentration of approximately 5×10^5 CFU/ml. Inocula for S. pneumoniae and H. influenzae were prepared by directly suspending colonies from an overnight plate, adjusting the turbidity and diluting as above. S. pneumoniae media was supplemented with 2.5% lysed horse blood. All plates were incubated in ambient air at 35° C. for […] for S. peteumoniae and Haemophilus influenzae and 16-20 h for all other bacteria.

E. faecalis ATCC29212 = assay type: cell-based; conditions: CAMHB, 35° C., 16-20 h
Method: as §1

S. aureus ATCC29213 = assay type: cell-based; conditions: CAMHB, 35° C., 16-20 h
Method: as §1

S. pneumoniae ATCC49619 = assay type: cell-based, Streptococcus pneumoniae; conditions: media with 2.5% lysed horse blood, 35° C.
Method: (§2) Minimum inhibitory concentrations (“MICs”) were determined by the NCCLS broth microdilution procedure for susceptibility testing for bacteria that grow aerobically (National Committee for Clinical Laboratory Standards, 1997. Methods for dilution antimicrobial Susceptibility tests for bacteria that grow aerobically, 4th ed. Approved standard. NCCLS Document M7-A4. National Committee for Clinical Laboratory Standards, Villanova, Pa.). stock solutions were prepared on the day of the test and appropriate aliquots were added to cation adjusted Mueller-Hinton broth (CAMHB) or Haemophilus test media. Two-fold serial dilutions were prepared and added to wells in microtiter plates. Final test concentrations ranged from 16 to 0.015 μg/ml. Broth cultures of bacteria inoculated from growth on overnight plates for all test bacteria except Streptococcus pneumoniae and Haemophilus influenzae were incubated at 35° C. and then adjusted to the Kirby Bauer standard and diluted in CAMHB to achieve a final inoculum concentration of approximately 5×10^5 CFU/ml. Inocula for S. pneumoniae and H. influenzae were prepared by directly suspending colonies from an overnight plate, adjusting the turbidity and diluting as above. S. pneumoniae media was supplemented with 2.5% lysed horse blood. […]

H. influenzae OC4883 = assay type: cell-based, Haemophilus influenzae; conditions: Haemophilus test media, 35° C.
Method: as §2

MIC (E. coli OC2605; Escherichia coli, OC2605, Table 3, Table 2 compounds): > 16 µg/mL
In Vitro Susceptibility (MIC) E. coli OC2605 (E. coli OC2605; Table 4, Formula III compounds): >16 µg/mL
MIC (E. faecalis ATCC29212; Enterococcus faecalis, ATCC29212, Table 3, Table 2 compounds): 1 µg/mL (≈ 1.36 µM)
In Vitro Susceptibility (MIC) E. faecalis ATCC29212 (E. faecalis ATCC29212; Table 4, Formula III compounds): 1 µg/mL
MIC (S. aureus ATCC29213; Staphylococcus aureus, ATCC29213, Table 3, Table 2 compounds): 0.5 µg/mL (≈ 0.681 µM)
In Vitro Susceptibility (MIC) S. aureus ATCC29213 (S. aureus ATCC29213; Table 4, Formula III compounds): 0.5 µg/mL
MIC (S. pneumoniae ATCC49619; Streptococcus pneumoniae, ATCC49619, Table 3, Table 2 compounds): 0.06 µg/mL (≈ 0.0818 µM)
In Vitro Susceptibility (MIC) S. pneumoniae ATCC49619 (S. pneumoniae ATCC49619; Table 4, Formula III compounds): 0.06 µg/mL
MIC (H. influenzae OC4883; Haemophilus influenzae, OC4883, Table 3, Table 2 compounds): 1 µg/mL (≈ 1.36 µM)
In Vitro Susceptibility (MIC) H. influenzae OC4883 (H. influenzae OC4883; Table 4, Formula III compounds): 1 µg/mL
Structure (SMILES): CC[C@H]1OC(=O)[C@H](C)[C@@H](O[C@H]2C[C@@](C)(OC)[C@@H](O)[C@H](C)O2)[C@H](C)[C@@H](O[C@@H]2O[C@H](C)C[C@H](N(C)C)[C@H]2O)[C@](C)(O)C[C@@H](C)C(=O)[C@H](C)[C@@H](O)[C@]1(C)O [Erythromycin]
